# Reference: patent US11731964B2, “Benzamide antibacterial agents” (Purdue Research Foundation, priority 2018, dated 2023)
# Legend:
# Format in all cases: cell-based
# MRSA ATCC 33592 = test: MIC, broth microdilution; details: Staphylococcus aureus; MRSA ATCC 33592; read-out: MIC
# Protocol: (§1) Bacteria were cultured in cation-adjusted Mueller Hinton Broth (for strains in Tables 1 and 4) or Brain Heart Infusion broth (for Enterococcus faecium) or Tryptic Soy Broth (all other bacteria) in a 96-well plate at 37° C. for at least 20 hours. The MIC was classified as the lowest concentration where no visual growth of bacteria was observed. The minimum bactericidal concentration (MBC) was tested by spotting 4 μL from wells with no growth onto Tryptic Soy Agar (TSA) plates. Plates were incubated at 37° C. for at least 18 hours before recording the MBC.
# S. aureus [1] = test: MIC (Table 5, strain not given); details: Staphylococcus aureus; S. aureus (Table 5)
# Protocol: as §1
# [2] = tested on: Clostridium difficile ATCC BAA 1801; test: Clostridium difficile inhibition analysis
# [3] = tested on: Clostridium difficile ATCC 9689; test: Clostridium difficile inhibition analysis; details: Table 6, ATCC 9689
# [4] = tested on: Clostridium difficile ATCC 43255; test: Clostridium difficile inhibition analysis; details: Table 6, ATCC 43255
# [5] = tested on: C. difficile NR-32883 (P2); test: Clostridium difficile inhibition analysis
# [6] = tested on: C. difficile NR-32891 (P13); test: Clostridium difficile inhibition analysis
# [7] = tested on: C. difficile NR-32895 (P19); test: Clostridium difficile inhibition analysis
# [8] = tested on: C. difficile NR-32904 (P30); test: Clostridium difficile inhibition analysis
# [9] = tested on: C. difficile NR-13432 (isolate 6); test: Clostridium difficile inhibition analysis
# [10] = tested on: C. difficile NR-13435 (isolate 9); test: Clostridium difficile inhibition analysis
# S. aureus [11] = test: Screening of compounds for growth inhibition of S. aureus at 16 μg/mL (OD600); details: compound at 16 μg/mL, 24 hours, compared to DMSO control
# Protocol: Library compounds and analogs of F6 were dissolved in DMSO at 10 mg/mL. S. aureus was cultured in Mueller Hinton Broth to early exponential phase at which point culture aliquots were incubated with compounds at 16 μg/mL or DMSO in duplicates. The culture was continued at 37° C. for 24 hours. Aliquots (100 μL) of the cultures were dispensed into clear 96 well microtiter plates and OD600 was recorded. Percent normalized OD600 was obtained by using the equation [formula] wherein for a given compound, X is the OD600 of culture with the compound, Xo is that of media only and XT is the OD600 of the DMSO control.
# E. faecalis ATCC 29212 = test: MIC, broth microdilution; details: Enterococcus faecalis, ATCC29212; E. faecalis ATCC 29212; read-out: MIC
# Protocol: as §1
# [12] = tested on: L. monocytogenes ATCC 19115; test: MIC, broth microdilution; details: Listeria monocytogenes, ATCC19115; L. monocytogenes ATCC 19115; read-out: MIC
# Protocol: as §1
# S. aureus ATCC 25923 = test: MIC, broth microdilution; details: Staphylococcus aureus, ATCC25923; S. aureus ATCC 25923; read-out: MIC
# Protocol: as §1
# [13] = tested on: VRE (E. faecalis) ATCC 51575; test: MIC, broth microdilution; details: VRE (E. faecalis) ATCC 51575; read-out: MIC
# Protocol: as §1
Compound,MIC (MRSA ATCC 33592) [µg/mL],MIC (E. faecalis ATCC 29212) [µg/mL],MIC [12] [µg/mL],MIC (S. aureus ATCC 25923) [µg/mL],MIC [13] [µg/mL],inhibition of growth of S. aureus (S. aureus [11]),also measured
"O=C(Nc1nnc(-c2ccc(C(F)(F)F)cc2)o1)c1ccc(S(=O)(=O)Nc2ccccc2)cc1 [HSGN-118, 4-(N-phenylsulfamoyl)-N-(5-(4-(trifluoromethyl)phenyl)-1,3,4-oxadiazol-2-yl)benzamide]",4,,,,,,"MIC (S. aureus [1]): 4 µg/mL; Clostridium difficile inhibition ([2]; Table 6, ATCC BAA 1801): 0.5; Clostridium difficile inhibition [3]: 0.5; Clostridium difficile inhibition [4]: 0.5; Clostridium difficile inhibition ([5]; Table 6, P2): 0.5; Clostridium difficile inhibition ([6]; Table 6, P13): 1; Clostridium difficile inhibition ([7]; Table 6, P19): 0.5; Clostridium difficile inhibition ([8]; Table 6, P30): 0.5; Clostridium difficile inhibition ([9]; Table 6, I6): 0.5; Clostridium difficile inhibition ([10]; Table 6, I9): 0.5"
"CC1CC(C)CN(S(=O)(=O)c2cncc(C(=O)Nc3nnc(-c4ccc(C(F)(F)F)cc4)o3)c2)C1 (stereo not drawn) [HSGN 216, 5-((3,5-dimethylpiperidin-1-yl)sulfonyl)-N-(5-(4-(trifluoromethyl)phenyl)-1,3,4-oxadiazol-2-yl)nicotinamide]",,,,,,,"Antibacterial activity ([2]; Table 7, C. difficile ATCC BAA 1801): 0.25; Antibacterial activity ([5]; Table 7, C. difficile NR-32883 (P2)): 0.06; Antibacterial activity ([6]; Table 7, C. difficile NR-32891 (P13)): 0.5; Antibacterial activity ([7]; Table 7, C. difficile NR-32895 (P19)): 0.125; Antibacterial activity ([8]; Table 7, C. difficile NR-32904 (P30)): 0.5; Antibacterial activity ([9]; Table 7, C. difficile NR-13432 (isolate 6)): 0.125; Antibacterial activity ([10]; Table 7, C. difficile NR-13435 (isolate 9)): 0.125"
COc1cccc(-c2nnc(NC(=O)c3ccc(S(=O)(=O)N(C)CC4CCCO4)cc3)o2)c1 (stereo not drawn) [Compound G8],32,32,32,32,32,significantly inhibited the growth,

# Now from value to compound, other results behind:
MIC (MRSA ATCC 33592) [µg/mL],MIC (E. faecalis ATCC 29212) [µg/mL],MIC [12] [µg/mL],MIC (S. aureus ATCC 25923) [µg/mL],MIC [13] [µg/mL],Compound,inhibition of growth of S. aureus (S. aureus [11]),also measured
8,16,16,8,16,CC1CCCCN1S(=O)(=O)c1ccc(C(=O)Nc2nnc(-c3cccs3)o2)cc1 (stereo not drawn) [Compound F5],significantly inhibited the growth,
1,4,2,2,2,"CC1CC(C)CN(S(=O)(=O)c2ccc(C(=O)Nc3nnc(-c4ccc(Cl)cc4)o3)cc2)C1 (stereo not drawn) [Compound F6-5, N-(5-(4-Chlorophenyl)-1,3,4-oxadiazol-2-yl)-4-((3,5-dimethylpiperidin-1-yl)sulfonyl)benzamide]",active,
